Earlier results on 1 compound are cited in PMC7830118, “Synthesis and Biological Evaluation of ^99mTc(I) Tricarbonyl Complexes Dual-Targeted at Tumoral Mitochondria” (Molecules, 2021).

The subject of the series is mitochondria fraction isolated from rat myocardium. On the procedure: The ^99mTc-BBN complex accumulates to a low extent (0.19 to 0.24%) in mitochondria when compared with the TPP-containing complexes. […] The highest mitochondrial uptake (0.84 ± 0.06%) was found for the dual-targeted complex, ^99mTc-TPP-BBN, after 2 h of incubation. The measured uptakes are relative values that were obtained in the same manner and, therefore, reflect the mitotropic properties of each complex. However, it is worthwhile to mention that in these ...

On to `[99Tc].[C-]#[N+]CC(C)(C)OC.[C-]#[N+]CC(C)(C)OC.[C-]#[N+]CC(C)(C)OC.[C-]#[N+]CC(C)(C)OC.[C-]#[N+]CC(C)(C)OC.[C-]#[N+]CC(C)(C)OC` [^99mTc-MIBI], for which, under “correction with CCCP and malate dehydrogenase activity”, the “Mitochondrial uptake after correction for mitochondria in other cellular fractions” value is reported as 68%. Under “mitochondria fraction isolated from rat myocardium”, the “Measured mitochondrial uptake (accumulation in the mitochondria fraction), uncorrected” value is reported as 2.38%.
